According to patent US5384406A, “Water-soluble biologically active ammonium salts” (ISP Investments Inc., priority 1993, dated 1995):
Like-named read-outs stand apart in the source and are kept apart here.

Tests used:
[1] = solubility in water
Method: Example 1 was repeated, except that 2 g of heavy water replaced 150 g of methanol solvent, 0.3 g of Dicamba replaced 30 g Dicamba and 0.16 g of AEP replaced 15.8 g of AEP.
(§1) In a 250 ml round bottom flask 15.5 g (0.482 millimole) of a commercial herbicide, imazaquin* (97.4% pure, having an average molecular weight of 311.4) was suspended in 100 g water. To the suspension, 6.1 g (0.469 millimole) of 98.5% pure AEP was added. […] 2-[4,5-dihydro-4-methyl-4-(methylethyl)-5-oxo-1H-imidazol-2-yl]-3-quinoline e carboxylic acid.
To a solution containing 13 g (0.1 mole) AEP (98.5% pure) dissolved in 30 g water in a 100 ml round bottom flask was added at 25° C. and with constant agitation, 16.9 g (0.1 mole) of water insoluble solid phosphonomethyl glycine.
To one liter of water was added 15.42 g of 2,4 D+7.11 g of mecoprop +1.83 g of 90% pure dicamba. After which 13.83 g AEP was added to the mixture. […] To the above solution was added 9 g of polyalkylene oxide modified by polydimethyl siloxane (Silvelt 7607 wetting agent) from Union Carbide. The mixture was stirred and the total weight was adjusted to 3000 g by adding water.

[2] = Method: A solution containing 25 g of the AEP salt of commercial imazaquin in water was prepared from a suspension of 25 g of imazaquin in 50 g water to which was added a stoichiometric amount of AEP (10.2 g) and an additional 15 g of water. The solution was stirred for 30 minutes after which it was filtered and the pH of the filtrate was adjusted to 7.2.
[3] = aqueous solution after filtration, not adjusted
Method: as §1

[4] = test system: broad leaf plants and perennial weeds; experiment: evaluation as aquatic herbicide and broad spectrum growth inhibitor, compared with the isopropyl amine salt of phosphonomethyl glycine; format: in vivo
Method: A suspension of 169 g of phosphonomethyl glycine in 301 g water was prepared and 130 g 98.5% pure AEP was added slowly with stirring until all of the phosphonomethyl glycine dissolved as the AEP salt. The resulting solution, (containing 28% of the active ingredient expressed as the free acid or 49.5% of the active ingredient expressed as the AEP salt) was evaluated as an aquatic herbicide and as a broad spectrum growth inhibitor for broad leaf plants and perennial weeds and compared with the isopropyl amine salt of phosphonomethyl glycine.

What does the source list for COc1c(Cl)ccc(Cl)c1C(=O)O.NCCN1CCCC1=O [Example 1, N-pyrrolidonyl ethyl ammonium salt of 3,6-dichloro-l-methoxy benzoic acid]?
solubility in water (in words) ([1]; water): easily dissolved in 60% water; solubility in water (in words) ([1]; water, listed as Example 2): easily solubilized in water

Which “storage stability of solution” value ([2]; ambient conditions, stored for 6 months) does the source give for CC(C)C1(C)N=C(c2nc3ccccc3cc2C(=O)O)NC1=O.NCCN1CCCC1=O (stereo not shown) [Example 3, N-pyrrolidonyl ethyl ammonium salt of imazaquin] here?
The value was “stable under ambient conditions without any precipitation”.

What about the “precipitation after cooling and reheating” value ([2]; cooling to 0° C., then to room temperature) of the same molecule?
Its value is “no precipitation was observed”.

What about the “dissolution of freeze-dried solid in water” value ([1]; 0.1 g in 50 g of water) of the same molecule?
The value was “dissolved completely”.

What about the “pH of the filtrate” value [3] of the same molecule?
The value was 7.2.

Which results are given for NCCN1CCCC1=O.O=C(O)CNCP(=O)(O)O [Example 5, N-pyrrolidonyl ethyl ammonium salt of phosphonomethyl glycerine]?
soluble in water ([1]; isolated AEP salt): more than 50%; kill [4]: significantly higher and more permanent kill

Which “solubility in water (in words)” value [1] does the source give for COc1c(Cl)ccc(Cl)c1C(=O)O [reference compound] here?
Its value is “very poor solubility”.

And the solubility ([1]; water)?
The solubility was < 1000 µg/mL.
